Reference: paper PMC11855086, “Synthesis, Antimicrobial Activity, and Tyrosinase Inhibition by Multifunctional 3,4-Dihydroxy-Phenyl Peptidomimetics” (International Journal of Molecular Sciences, 2025)
Converted amounts (≈) assume the structure as drawn.

What was measured:
[1] = target: T1, mushroom tyrosinase (mTYR) (Agaricus bisporus, UniProt C7FF04); assay: Tyrosinase assay with L-DOPA as substrate (absorbance at 475 nm); assay type: biochemical; settings: 100 µM compound
T1 construct: purchased Sigma-Aldrich (Poznan, Poland); host or cells: Agaricus bisporus (extracted natural enzyme)
Excerpt: Tyrosinase (Tyr) extracted from Agaricus bisporus (mushroom tyrosinase, mTYR) is commonly used as a model enzyme for human Tyr due to its high purity, stability, and commercial availability. It is frequently used in the selection of TYR inhibitors. Following established literature protocols, L-tyrosine and L-DOPA, which serve as substrates for monophenol and diphenol oxidation, respectively, were used to assess the tyrosinase inhibitory activity of synthesized target compounds [21].
Tyrosinase (Tyr) activity was measured using L-DOPA as substrate and phosphate buffer solution (PBS) as blank control, following the method described by Min He et al. (2022) with an ultraviolet spectrophotometer (Carry-300, Agilent Life Sciences and Chemical Analysis, Santa Clara, CA, USA). […] Before the experiment, 2.9 mL of PBS and 0.1 mL of DMSO were used to account for the influence of the background solvent. The inhibitor solution (100 µL), substrate solution (2.8 mL), and Tyr solution (100 µL) were then added to a quartz colorimetric cuvette. After a one-minute mixing period, the absorption spectra of the mixture were continuously recorded at 475 nm using the UV spectrophotometer (Carry-300) for 5 min over a period of every 30 s. The tyrosinase inhibition rate was calculated as follows:Relative enzyme activity (%) = (A1 − A2)/A1 × 100
A1 = Absorbance of L-DOPA and inhibitor.
A2 = Absorbance of L-DOPA, inhibitor, and tyrosinase.

E. coli R3 (ATCC 11775) = assay: MIC and MBC, microtiter plate technique; assay type: cell-based; settings: Escherichia coli; for MIC: ATCC11775, 24 h, resazurin; for MBC: ATCC11775, TTC
E. coli K12 (ATCC 25404) = assay: MIC and MBC, microtiter plate technique; assay type: cell-based; settings: Escherichia coli; for MBC: ATCC25404; for MIC: ATCC25404, 24 h
E. coli R4 (ATCC 39543) = assay: MIC and MBC, microtiter plate technique; assay type: cell-based; settings: Escherichia coli; for MBC: ATCC39543; for MIC: ATCC39543, 24 h
E. cloacae (ATCC 49141) = assay: MIC and MBC, microtiter plate technique; assay type: cell-based; settings: ATCC49141, Enterobacter cloacae; for MIC: 24 h, resazurin; for MBC: TTC
E. coli R2 (ATCC 39544) = assay: MIC and MBC, microtiter plate technique; assay type: cell-based; settings: Escherichia coli; for MBC: ATCC39544; for MIC: ATCC39544, 24 h
S. aureus (ATCC 23235) = assay: microbe, parasite or virus in culture; assay type: cell-based; settings: Staphylococcus aureus; for MBC: ATCC23235; for MIC: ATCC23235, 24 h
[2] = test system: P. aeruginosa (ATCC 15442); assay: MIC and MBC, microtiter plate technique; assay type: cell-based; settings: ATCC15442, Pseudomonas aeruginosa; for MIC: 24 h, resazurin; for MBC: TTC
[3] = test system: A. baumannii (ATCC 17978); assay: MIC and MBC, microtiter plate technique; assay type: cell-based; settings: ATCC17978, Acinetobacter baumannii; for MIC: 24 h, resazurin; for MBC: TTC
[4] = target: T1, mushroom tyrosinase (mTYR); set-up: method as in earlier work; settings: reported value; cited from earlier work
MTT cytotoxicity assay = assay type: cell-based; settings: mouse, BALB/c3T3 mouse embryonic fibroblast cells; for viability at 24 h, 1 µM: read-out: cell viability
Procedure: Following the completion of MIC and MBC assays on the analyzed bacterial strains, and subsequent treatment with Fpg protein modified by peptidomimetics along with selected antibiotics, a further MTT assay was conducted to evaluate the cytotoxicity of the compounds employing the BALB/c3T3 mouse embryonic fibroblast cell line (Figure 10).
BALB/c3T3 mouse embryonic fibroblast cells were exposed to peptidomimetics across concentrations ranging from 0.5 µM to 3.5 µM and incubated for a duration of 24 h. […] The highest concentrations (2.5 µM and 3.5 µM) inhibited cell viability, which was reduced to 20.2% and 1.0%, respectively (Figure 10 and Figure S40 in the Supplementary Materials).
The cytotoxic effects of aldehyde 1 and peptidomimetics 5a–r on BALB/c3T3 mouse fibroblast cells were assessed utilizing the MTT assay following a 24 h incubation period across five different concentrations (0.5, 1.0, 1.5, 2.5, and 3.5 µM). The MTT assay is predicated upon the capacity of mitochondrial dehydrogenase enzymes to convert the water-soluble tetrazolium salt, 3-([…])-2,5-diphenyltetrazolium bromide (MTT), into an insoluble formazan product, manifesting as dark blue crystals. These formazan crystals are then dissolved in DMSO or isopropanol, forming a colored solution whose intensity is measured spectrophotometrically within the wavelength range of 492–570 nm. The amount of MTT reduced corresponds to the oxidative activity of the mitochondria, which is directly proportional to the number of metabolically active cells in the population under defined experimental conditions. The MTT assay can also be used to assess cell viability in non-dividing metabolically active cells. It is one of the most widely used methods to assess cytotoxic activity and is recommended by international standards organizations as a reference method.

[5] = test system: E. coli, A. baumannii, P. aeruginosa, E. cloacae, and S. aureus; assay: MIC and MBC over all model bacterial strains (summary statements); assay type: cell-based; settings: Gram-positive and Gram-negative bacteria

T1 sequence (C7FF04 1-392 limits assumed): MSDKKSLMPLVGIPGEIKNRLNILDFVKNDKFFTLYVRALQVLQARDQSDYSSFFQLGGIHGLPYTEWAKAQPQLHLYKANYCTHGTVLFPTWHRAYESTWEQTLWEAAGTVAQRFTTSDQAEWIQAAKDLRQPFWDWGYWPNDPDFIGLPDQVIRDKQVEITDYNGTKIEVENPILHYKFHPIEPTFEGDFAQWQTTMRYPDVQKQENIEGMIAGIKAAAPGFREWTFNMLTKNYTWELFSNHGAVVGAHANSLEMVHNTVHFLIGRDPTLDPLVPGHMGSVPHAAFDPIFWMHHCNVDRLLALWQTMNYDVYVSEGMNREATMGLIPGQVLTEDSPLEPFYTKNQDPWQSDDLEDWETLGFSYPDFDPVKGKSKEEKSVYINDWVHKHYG

Row | Structure (SMILES) | inhibition at 100 µM [1] | MIC (E. coli R3 (ATCC 11775)) | MBC (E. coli R3 (ATCC 11775)) | MBC (E. coli K12 (ATCC 25404)) | MIC (E. coli K12 (ATCC 25404)) | MBC (E. coli R4 (ATCC 39543)) | MIC (E. coli R4 (ATCC 39543)) | MIC (E. cloacae (ATCC 49141)) | MBC (E. cloacae (ATCC 49141)) | MBC (E. coli R2 (ATCC 39544)) | MIC (E. coli R2 (ATCC 39544)) | MBC (S. aureus (ATCC 23235)) | MIC (S. aureus (ATCC 23235)) | MIC [2] | MBC [2] | MIC [3] | MBC [3] | viability at 24 h, 1 µM (MTT cytotoxicity assay) | further results
1 | O=Cc1ccc(O)c(O)c1 [Compound 1, 3,4-dihydroxybenzaldehyde, reference compound] | 15% | 2.85 µM (≈ 0.394 µg/mL) | 2.96 µM (≈ 0.409 µg/mL) | 1.82 µM (≈ 0.251 µg/mL) | 1.39 µM (≈ 0.192 µg/mL) | 3.58 µM (≈ 0.494 µg/mL) | 3.57 µM (≈ 0.493 µg/mL) | 2.75 µM (≈ 0.38 µg/mL) | 3.04 µM (≈ 0.42 µg/mL) | 2.6 µM (≈ 0.359 µg/mL) | 2.46 µM (≈ 0.34 µg/mL) | 3.33 µM (≈ 0.46 µg/mL) | 2.67 µM (≈ 0.369 µg/mL) | 3 µM (≈ 0.414 µg/mL) | 3.33 µM (≈ 0.46 µg/mL) | 2.82 µM (≈ 0.39 µg/mL) | 3.55 µM (≈ 0.49 µg/mL) |  | IC50 [4]: 250 µM
2 | COc1ccc(CN(C(=O)Cc2ccccc2)C(C(=O)NCc2ccccc2)c2ccc(O)c(O)c2)cc1 (centres unmarked) [Compound 5a, N-benzyl-2-(3,4-dihydroxyphenyl)-2-(N-(4-methoxybenzyl)-2-phenylacetamido)-acetamide] | < 10% | 0.66 µM (≈ 0.337 µg/mL) | 0.84 µM (≈ 0.429 µg/mL) | 0.32 µM (≈ 0.163 µg/mL) | 0.3 µM (≈ 0.153 µg/mL) | 1.15 µM (≈ 0.587 µg/mL) | 0.88 µM (≈ 0.449 µg/mL) | 0.58 µM (≈ 0.296 µg/mL) | 0.62 µM (≈ 0.317 µg/mL) | 0.62 µM (≈ 0.317 µg/mL) | 0.59 µM (≈ 0.301 µg/mL) | 0.68 µM (≈ 0.347 µg/mL) | 0.65 µM (≈ 0.332 µg/mL) | 0.62 µM (≈ 0.317 µg/mL) | 0.66 µM (≈ 0.337 µg/mL) | 0.63 µM (≈ 0.322 µg/mL) | 0.68 µM (≈ 0.347 µg/mL) |  | IC50 at 24 h (MTT cytotoxicity assay; 24 h of incubation, (±0.14), read-out: half maximum inhibitory concentration (IC50), cytotoxicity): 1.61 µM; antibacterial spectrum [5]: broad-spectrum activity
3 | COc1ccc(CN(C(=O)Cc2ccccc2)C(C(=O)NCc2ccc(F)cc2)c2ccc(O)c(O)c2)cc1 (centres unmarked) [Compound 5c, 2-(3,4-dihydroxyphenyl)-N-(4-fluorobenzyl)-2-(N-(4-methoxybenzyl)-2-phenylacetamido)-acetamide] | < 10% | 1.61 µM (≈ 0.851 µg/mL) | 1.79 µM (≈ 0.946 µg/mL) | 0.66 µM (≈ 0.349 µg/mL) | 0.45 µM (≈ 0.238 µg/mL) | 2.36 µM (≈ 1.25 µg/mL) | 1.98 µM (≈ 1.05 µg/mL) | 1.08 µM (≈ 0.571 µg/mL) | 1.11 µM (≈ 0.587 µg/mL) | 1.04 µM (≈ 0.55 µg/mL) | 1 µM (≈ 0.529 µg/mL) | 1 µM (≈ 0.529 µg/mL) | 0.96 µM (≈ 0.507 µg/mL) | 1.04 µM (≈ 0.55 µg/mL) | 1.09 µM (≈ 0.576 µg/mL) | 0.84 µM (≈ 0.444 µg/mL) | 0.94 µM (≈ 0.497 µg/mL) | 60.2% | 
4 | CCCCN(C(C)=O)C(C(=O)NCc1ccccc1)c1ccc(O)c(O)c1 (centres unmarked) [Compound 5p, N-benzyl-2-(N-butylacetamido)-2-(3,4-dihydroxyphenyl)acetamide] | > 10% | 1.27 µM (≈ 0.47 µg/mL) | 1.64 µM (≈ 0.608 µg/mL) | 0.89 µM (≈ 0.33 µg/mL) | 0.33 µM (≈ 0.122 µg/mL) | 1.7 µM (≈ 0.63 µg/mL) | 1.58 µM (≈ 0.585 µg/mL) | 0.86 µM (≈ 0.319 µg/mL) | 0.94 µM (≈ 0.348 µg/mL) | 1.51 µM (≈ 0.559 µg/mL) | 0.84 µM (≈ 0.311 µg/mL) | 0.94 µM (≈ 0.348 µg/mL) | 0.87 µM (≈ 0.322 µg/mL) | 0.88 µM (≈ 0.326 µg/mL) | 0.94 µM (≈ 0.348 µg/mL) | 0.87 µM (≈ 0.322 µg/mL) | 0.9 µM (≈ 0.333 µg/mL) |  | 
5 | CCCCN(C(C)=O)C(C(=O)NCc1ccc(OC)cc1)c1ccc(O)c(O)c1 (centres unmarked) [Compound 5q, 2-(N-butylacetamido)-2-(3,4-dihydroxyphenyl)-N-(4-methoxybenzyl)acetamide] | < 10% | 1.13 µM (≈ 0.453 µg/mL) | 1.52 µM (≈ 0.609 µg/mL) | 0.79 µM (≈ 0.316 µg/mL) | 0.43 µM (≈ 0.172 µg/mL) | 1.58 µM (≈ 0.633 µg/mL) | 1.49 µM (≈ 0.597 µg/mL) | 0.84 µM (≈ 0.336 µg/mL) | 0.85 µM (≈ 0.34 µg/mL) | 1.44 µM (≈ 0.577 µg/mL) | 0.82 µM (≈ 0.328 µg/mL) | 0.91 µM (≈ 0.364 µg/mL) | 0.81 µM (≈ 0.324 µg/mL) | 0.83 µM (≈ 0.332 µg/mL) | 0.87 µM (≈ 0.348 µg/mL) | 0.81 µM (≈ 0.324 µg/mL) | 0.85 µM (≈ 0.34 µg/mL) | 86.9% | 
6 | CCCCN(C(C)=O)C(C(=O)NCc1ccc(F)cc1)c1ccc(O)c(O)c1 (centres unmarked) [Compound 5r, 2-(N-butylacetamido)-2-(3,4-dihydroxyphenyl)-N-(4-fluorobenzyl)acetamide] | < 10% | 2.56 µM (≈ 0.994 µg/mL) | 3.14 µM (≈ 1.22 µg/mL) | 0.94 µM (≈ 0.365 µg/mL) | 0.74 µM (≈ 0.287 µg/mL) | 3.5 µM (≈ 1.36 µg/mL) | 3.13 µM (≈ 1.22 µg/mL) | 1.67 µM (≈ 0.649 µg/mL) | 1.5 µM (≈ 0.583 µg/mL) | 1.51 µM (≈ 0.587 µg/mL) | 1.5 µM (≈ 0.583 µg/mL) | 1.54 µM (≈ 0.598 µg/mL) | 1.51 µM (≈ 0.587 µg/mL) | 1.64 µM (≈ 0.637 µg/mL) | 1.49 µM (≈ 0.579 µg/mL) | 1.26 µM (≈ 0.489 µg/mL) | 1.31 µM (≈ 0.509 µg/mL) |  | 
